For orientation: inhibition means the change of the read-out against control, counted positive when it falls. By IC50 is commonly meant the concentration that gives 50% inhibition.

The values that follow come from ChEMBL document CHEMBL1131864, “Effects of sesquiterpenes and triterpenes from the rhizome of Alisma orientale on nitric oxide production in lipopolysaccharide-activated macrophages: absolute stereostructures of alismaketones-B 23-acetate and -C 23-acetate” (Bioorg Med Chem Lett, 1999).

What all share (type): functional
The species entered for assay [1] is Mus musculus. Briefly: Inhibition of nitric oxide production in LPS-activated mouse macrophages at a concentration of 100 uM.
Assay [2] is filed under the species Mus musculus. In words: Inhibition of nitric oxide production in LPS-activated mouse macrophages at a concentration of 10 uM.
For assay [3], the species on record is Mus musculus. Briefly: Inhibition of nitric oxide production in LPS-activated mouse macrophages at a concentration of 30 uM.
The species entered for assay [4] is Mus musculus. Briefly: Concentration required for inhibition of nitric oxide production in LPS-activated mouse macrophages.
Assay [5] is filed under the species Mus musculus. Briefly: Inhibition of nitric oxide production in LPS-activated mouse macrophages at a concentration of 3 uM.
The species entered for assay [6] is Mus musculus. In words: Inhibition of nitric oxide production in LPS-activated mouse macrophages at a concentration of 1 uM.

With `O=C(/C=C/c1ccc(O)c(O)c1)OCCc1ccccc1` [CAFFEIC ACID PHENETHYL ESTER], the inhibition at 100 µM in the assay filed under Mus musculus [1] is 104%. For the same molecule, the inhibition at 10 µM in the assay filed under Mus musculus [2] came out at 97.5%. For the same molecule, in the assay listed under Mus musculus [3], the inhibition at 30 µM amounted to 104%. The molecule further yielded an IC50 in the assay listed under Mus musculus [4] of 4 µM. The inhibition at 3 µM in the assay filed under Mus musculus [5] came out at 25.5%. Further, the inhibition at 1 µM in the assay filed under Mus musculus [6] was -1.9%.
For `C[C@H](C[C@H](O)[C@H](O)C(C)(C)O)C1=C2C[C@H](O)C3[C@@]4(C)CCC(=O)C(C)(C)C4CC[C@]3(C)[C@@]2(C)CC1` (stereo partly drawn), the inhibition at 100 µM in the assay listed under Mus musculus [1] amounted to 111%. For the same molecule, the inhibition at 10 µM in the assay filed under Mus musculus [2] was determined as 30%. Besides, the inhibition at 30 µM in the assay listed under Mus musculus [3] was 113%. In the assay filed under Mus musculus [4], this molecule showed an IC50 above 10 µM. In the assay filed under Mus musculus [5], the inhibition at 3 µM is 21.4%. The inhibition at 1 µM in the assay listed under Mus musculus [6] came out at 5.8%.
In the case of `N=C(N)NCCSSCCNC(=N)N` [GUANIDINOETHYLDISULFIDE], the inhibition at 100 µM in the assay listed under Mus musculus [1] worked out at 105%. In addition, in the assay listed under Mus musculus [2], the inhibition at 10 µM was 102%. For the same molecule, the inhibition at 30 µM in the assay filed under Mus musculus [3] turned out to be 105%. In the assay filed under Mus musculus [4], inhibition was half-maximal at 1.4 µM (IC50). For the same molecule, in the assay filed under Mus musculus [5], the inhibition at 3 µM was determined as 76.3%. For the same molecule, the inhibition at 1 µM in the assay listed under Mus musculus [6] was 39.1%.
Turning to `CC(C)C1=CC2C(CC[C@]2(C)O)/C(=C/S(=O)(=O)O)CC1` (stereo partly drawn), the inhibition at 100 µM in the assay listed under Mus musculus [1] stood at 27.1%. Moreover, the inhibition at 10 µM in the assay listed under Mus musculus [2] was determined as 11%. Also, the inhibition at 30 µM in the assay filed under Mus musculus [3] is 21.5%. Moreover, in the assay listed under Mus musculus [4], the IC50 was above 100 µM. Moreover, in the assay listed under Mus musculus [5], the inhibition at 3 µM was 14.3%. In the assay filed under Mus musculus [6], the inhibition at 1 µM came to 8.4%.
For the molecule `CC(=O)O[C@@H](C[C@@H](C)C1=C2C[C@@H]3OC(=O)C[C@@]4(C)C(C(C)(C)C(=O)O)CC[C@@](C)(C34)[C@@]2(C)CC1)[C@H]1OC1(C)C` (stereo partly drawn), the inhibition at 100 µM in the assay filed under Mus musculus [1] was 90.7%. In the assay listed under Mus musculus [2], the inhibition at 10 µM was found to be 38.2%. For the same molecule, the inhibition at 30 µM in the assay listed under Mus musculus [3] was determined as 65.6%. In the assay filed under Mus musculus [4], half-maximal inhibition (IC50) required 16 µM. Besides, the inhibition at 3 µM in the assay filed under Mus musculus [5] was found to be 23.2%. Besides, in the assay listed under Mus musculus [6], the inhibition at 1 µM is 10.3%.
For `C[C@H](CC(=O)CC(C)(C)O)C1=C2CCC3[C@@]4(C)CCC(=O)C(C)(C)C4CC[C@]3(C)[C@@]2(C)CC1=O` (stereo partly drawn), in the assay listed under Mus musculus [1], the inhibition at 100 µM was determined as 97.2%. The inhibition at 10 µM in the assay filed under Mus musculus [2] came to 26.7%. The inhibition at 30 µM in the assay filed under Mus musculus [3] came to 71.3%. Further, in the assay filed under Mus musculus [4], the IC50 stood at 17 µM. In addition, in the assay listed under Mus musculus [5], the inhibition at 3 µM amounted to 17.2%. Also, in the assay filed under Mus musculus [6], the inhibition at 1 µM is -5.1%.
Turning to `CC(=O)O[C@H]1C[C@@H](C)C2=C3C[C@H](O)C4[C@@]5(C)CCC(=O)C(C)(C)C5CC[C@]4(C)[C@@]3(C)C[C@@H]2O[C@H]1C(C)(C)O` (stereo partly drawn), the inhibition at 100 µM in the assay listed under Mus musculus [1] stood at 90.8%. The inhibition at 10 µM in the assay listed under Mus musculus [2] came to 13.5%. Further, the inhibition at 30 µM in the assay filed under Mus musculus [3] is 42.9%. Further, in the assay listed under Mus musculus [4], it took 36 µM to reach half-maximal inhibition (IC50). Also, in the assay filed under Mus musculus [5], the inhibition at 3 µM amounted to 7.5%. Further, the inhibition at 1 µM in the assay listed under Mus musculus [6] was -4.5%.
With `CC(C)C1=CC2C(CC[C@]2(C)O)[C@@](O)(CS(=O)(=O)O)CC1` (stereo partly drawn), the inhibition at 100 µM in the assay listed under Mus musculus [1] amounted to 21.3%. Also, in the assay listed under Mus musculus [2], the inhibition at 10 µM is 4.9%. For the same molecule, the inhibition at 30 µM in the assay filed under Mus musculus [3] is 16.3%. Besides, the IC50 in the assay listed under Mus musculus [4] was above 100 µM. Besides, the inhibition at 3 µM in the assay filed under Mus musculus [5] was -2.2%. The inhibition at 1 µM in the assay filed under Mus musculus [6] came to 2.8%.
With `C[C@@H]1CC([C@@H](O)C(C)(C)O)OC2C[C@@]3(C)C(=C21)C[C@H](O)C1[C@@]2(C)CCC(=O)C(C)(C)C2CC[C@@]13C` (stereo partly drawn), the inhibition at 100 µM in the assay listed under Mus musculus [1] was found to be 99.5%. The inhibition at 10 µM in the assay listed under Mus musculus [2] is 40.3%. For the same molecule, the inhibition at 30 µM in the assay filed under Mus musculus [3] is 69.6%. The molecule further displayed an IC50 in the assay filed under Mus musculus [4] of 15 µM. The inhibition at 3 µM in the assay listed under Mus musculus [5] is 14.8%. Further, the inhibition at 1 µM in the assay filed under Mus musculus [6] is 7.5%.
For `CC(=O)O[C@@H](C[C@@H](C)C1=C2C[C@H](O)C3[C@@]4(C)CCC(=O)C(C)(C)C4CC[C@]3(C)[C@@]2(C)CC1)[C@H](O)C(C)(C)O` (stereo partly drawn), the inhibition at 100 µM in the assay listed under Mus musculus [1] was found to be 104%. The inhibition at 10 µM in the assay listed under Mus musculus [2] stood at 32.1%. In the assay filed under Mus musculus [3], the inhibition at 30 µM was 81%. In the assay filed under Mus musculus [4], this molecule yielded an IC50 of 16 µM. In addition, the inhibition at 3 µM in the assay filed under Mus musculus [5] was found to be 10%. Further, in the assay listed under Mus musculus [6], the inhibition at 1 µM turned out to be 9.2%.
`C=C1CCC(C(C)C)=CC2C1CC[C@]2(C)O` (stereo partly drawn): the inhibition at 100 µM in the assay listed under Mus musculus [1] was determined as 97.4%. Besides, the inhibition at 10 µM in the assay filed under Mus musculus [2] amounted to 27%. For the same molecule, in the assay filed under Mus musculus [3], the inhibition at 30 µM was found to be 57.5%. For the same molecule, inhibition in the assay listed under Mus musculus [4] was half-maximal at 23 µM (IC50). The inhibition at 3 µM in the assay listed under Mus musculus [5] came out at 17.6%. Moreover, the inhibition at 1 µM in the assay listed under Mus musculus [6] was 3.4%.
As for `CNC(=N)NCCC[C@H](N)C(=O)O` [TILARGININE], in the assay filed under Mus musculus [1], the inhibition at 100 µM amounted to 79.2%. Besides, in the assay filed under Mus musculus [2], the inhibition at 10 µM worked out at 17.7%. The inhibition at 30 µM in the assay filed under Mus musculus [3] came to 52.3%. Moreover, it took 28 µM to reach half-maximal inhibition in the assay listed under Mus musculus [4] (IC50). The inhibition at 3 µM in the assay listed under Mus musculus [5] turned out to be 2%. For the same molecule, the inhibition at 1 µM in the assay filed under Mus musculus [6] turned out to be 4.4%.
For the molecule `C=C(C)[C@H](O)[C@@H](O)C[C@@H](C)C1=C2C[C@H](O)C3[C@@]4(C)CCC(=O)C(C)(C)C4CC[C@]3(C)[C@@]2(C)CC1` (stereo partly drawn), the inhibition at 100 µM in the assay filed under Mus musculus [1] came out at 106%. In the assay listed under Mus musculus [2], the inhibition at 10 µM was determined as 29.7%. For the same molecule, the inhibition at 30 µM in the assay listed under Mus musculus [3] was found to be 104%. The same molecule came in with an IC50 in the assay filed under Mus musculus [4] above 10 µM. The inhibition at 3 µM in the assay listed under Mus musculus [5] was 21.4%. Also, the inhibition at 1 µM in the assay filed under Mus musculus [6] worked out at 8.8%.
